Legend:
[1] = stability stress testing of crystalline form; assay type: physicochemical; details: ambient light, 40° C. and 75% relative humidity, 7 days
Source text: Form VIII appeared physically stable upon stability stress testing.

[2] = system: advanced solid malignancies; experiment: ProGem1 phase I study: clinical efficacy; assay type: in vivo, human; details: patients with advanced progressive cancers who have exhausted all standard therapeutic options, many resistant or refractory to prior nucleoside analogue therapy
Source text: (§1) ProGem1 was a first-time-in-human (FTIH), phase I, open label, two stage study to investigate the safety, tolerability, clinical efficacy, pharmacokinetics (PK) and pharmacodynamics (PD) of NUC-1031 given in two parallel dosing schedules in subjects with advanced solid malignancies (EudraCT Number: 2011-005232-26). Subjects had the following tumour types at study entry: colorectal cancer (7 subjects), unknown primary (3), ovarian cancer (12), breast cancer (4), pancreatic cancer (9), cholangiocarcinoma (7), endometrial cancer (3), cervical cancer (2), lung cancer (7), mesothelioma (3), oesophageal cancer (3), cancer of the fallopian tube (1), trophoblast (1), renal cancer (1), gastric cancer (1), anal cancer (1), cancer of the thymus (1) and osteosarcoma (1).

[3] = ProGem1 phase I study: pharmacokinetics (intracellular dFdCTP, dFdU); assay type: in vivo, human; details: relative to levels normally associated with gemcitabine
Source text: as §1

SMILES	change in crystalline form upon storage [1]	decrease in purity upon storage [1]	anti-tumour activity [2]	levels of the potentially toxic metabolite 2′,2′-difluoro-2′-deoxyuridine (dFdU) released, relative to gemcitabine [3]
C[C@H](N[P@](=O)(OC[C@H]1O[C@@H](n2ccc(N)nc2=O)C(F)(F)C1O)Oc1ccccc1)C(=O)OCc1ccccc1 (stereo partly shown) [Form VIII]	No change in crystalline form	no decrease in purity		
C[C@H](NP(=O)(OC[C@H]1O[C@@H](n2ccc(N)nc2=O)C(F)(F)C1O)Oc1ccccc1)C(=O)OCc1ccccc1 (stereo partly shown) [NUC-1031]			anti-tumour activity	less than half
